From patent publication US11795170B2 (Genentech, Inc., priority 2016, dated 2023)

How the values were obtained:
[1] = target: T1, isolated recombinant JAK1 kinase domain (Homo sapiens, UniProt P23458); experiment: JAK1 enzyme assay (Caliper LabChip, peptide phosphorylation); type: biochemical; conditions: 1.5 nM JAK1, 25 μM ATP, 22° C., 30 minutes; Morrison tight binding model
T1 construct: The activity of the isolated recombinant JAK1 and JAK2 kinase domain was measured
Procedure: (§1) JAK Enzyme Assays were Carried Out as Follows:
(§2) The activity of the isolated recombinant JAK1 and JAK2 kinase domain was measured by monitoring phosphorylation of a peptide derived from JAK3 (Val-Ala-Leu-Val-Asp-Gly-Tyr-Phe-Arg-Leu-Thr-Thr, fluorescently labeled on the N-terminus with 5-carboxyfluorescein) using the Caliper LabChip® technology (Caliper Life Sciences, Hopkinton, Mass.). To determine inhibition constants (K), compounds were diluted serially in DMSO and added to 50 μL kinase reactions containing purified enzyme (1.5 nM JAK1, or 0.2 nM JAK2), 100 mM HEPES buffer (pH 7.2), 0.015% Brij-35, 1.5 μM peptide substrate, ATP (25 μM), 10 mM MgCl2, 4 mM DTT at a final DMSO concentration of 2%. Reactions were incubated at 22° C. in 384-well polypropylene microtiter plates for 30 minutes and then stopped by addition of 25 μL of an EDTA containing solution (100 mM HEPES buffer (pH 7.2), 0.015% Brij-35, 150 mM EDTA), resulting in a final EDTA concentration of 50 mM. After termination of the kinase reaction, the proportion of phosphorylated product was determined as a fraction of total peptide substrate using the Caliper LabChip® 3000 according to the manufacturer's specifications. Ki values were then determined using the Morrison tight binding model (Morrison, J. F., Biochim. Biophys. Acta. 185:269-296 (1969); William, J. W. and Morrison, J. F., Meth. Enzymol., 63:437-467 (1979)) modified for ATP-competitive inhibition [Ki=Ki,app/(1+[ATP]/Km,app)].

[2] = target: T2, isolated recombinant JAK2 kinase domain (Homo sapiens, UniProt O60674); experiment: JAK2 enzyme assay (Caliper LabChip, peptide phosphorylation); type: biochemical; conditions: 0.2 nM JAK2, 25 μM ATP, 22° C., 30 minutes; Morrison tight binding model
T2 construct: The activity of the isolated recombinant JAK1 and JAK2 kinase domain was measured
Procedure: as §1, §2

[3] = system: JAK1-dependent STAT6 phosphorylation downstream of IL-13 stimulation; experiment: JAK1 pathway assay in BEAS-2B cells (IL-13 stimulated pSTAT6, MSD); type: cell-based; conditions: BEAS-2B human bronchial epithelial cells, 1 hr compound incubation, IL-13 for 15 min; read-out: IL13-pSTAT6 BEAS2B IC50
Procedure: JAK1 Pathway Assay in Cell Lines was Carried Out as Follows:
Inhibitor potency (EC50) was determined in cell-based assays designed to measure JAK1 dependent STAT phosphorylation. As noted above, inhibition of IL-4, IL-13, and IL-9 signalling by blocking the Jak/Stat signaling pathway can alleviate asthmatic symptoms in pre-clinical lung inflammation models (Mathew et al., 2001, J Exp Med 193(9): 1087-1096; Kudlacz et. al., 2008, Eur J. Pharmacol 582(1-3): 154-161).
In one assay approach, TF-1 human erythroleukemia cells obtained from the American Type Culture Collection (ATCC; Manassas, Va.) were used to measure JAK1-dependent STAT6 phosphorylation downstream of IL-13 stimulation. Prior to use in the assays, TF-1 cells were starved of GM-CSF overnight in OptiMEM medium (Life Technologies, Grand Island, N.Y.) supplemented with 0.5% charcoal/dextran stripped fetal bovine serum (FBS), 0.1 mM non-essential amino acids (NEAA), and 1 mM sodium pyruvate. The assays were run in 384-well plates in serum-free OptiMEM medium using 300,000 cells per well. In a second assay approach, BEAS-2B human bronchial epithelial cells obtained from ATCC were plated at 100,000 cells per well of a 96-well plate one day prior to the experiment. The BEAS-2B assay was run in complete growth medium (bronchial epithelial basal medium plus bulletkit; Lonza; Basel, Switzerland).
Test compounds were serially diluted 1:2 in DMSO and then diluted 1:50 in medium just before use. Diluted compounds were added to the cells, for a final DMSO concentration of 0.2%, and incubated for 30 min (for the TF-1 assay) or 1 hr (for the BEAS-2B assay) at 37° C. Then, cells were stimulated with human recombinant cytokine at their respective EC90 concentrations, as previously determined for each individual lot. Cells were stimulated with IL-13 (R&D Systems, Minneapolis, Minn.) for 15 min at 37° C. The TF-1 cell reactions were stopped by the direct addition of 10× lysis buffer (Cell Signaling Technologies, Danvers, Mass.), whereas the BEAS-2B cell incubations were halted by the removal of medium and addition of 1× lysis buffer. The resultant samples were frozen in the plates at −80° C. Compound mediated inhibition of STAT6 phosphorylation was measured in the cell lysates using MesoScale Discovery (MSD) technology (Gaithersburg, Md.). EC50 values were determined as the concentration of compound required for 50% inhibition of STAT phosphorylation relative to that measured for the DMSO control.

T1 sequence (P23458 875-1153): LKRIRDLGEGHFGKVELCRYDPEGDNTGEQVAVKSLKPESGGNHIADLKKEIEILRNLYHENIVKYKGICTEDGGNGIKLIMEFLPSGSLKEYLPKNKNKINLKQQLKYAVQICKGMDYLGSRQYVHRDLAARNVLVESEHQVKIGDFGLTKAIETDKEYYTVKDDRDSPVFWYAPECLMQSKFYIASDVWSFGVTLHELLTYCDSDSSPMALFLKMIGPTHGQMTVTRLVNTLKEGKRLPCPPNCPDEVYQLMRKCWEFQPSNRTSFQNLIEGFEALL
T2 sequence (O60674 849-1124): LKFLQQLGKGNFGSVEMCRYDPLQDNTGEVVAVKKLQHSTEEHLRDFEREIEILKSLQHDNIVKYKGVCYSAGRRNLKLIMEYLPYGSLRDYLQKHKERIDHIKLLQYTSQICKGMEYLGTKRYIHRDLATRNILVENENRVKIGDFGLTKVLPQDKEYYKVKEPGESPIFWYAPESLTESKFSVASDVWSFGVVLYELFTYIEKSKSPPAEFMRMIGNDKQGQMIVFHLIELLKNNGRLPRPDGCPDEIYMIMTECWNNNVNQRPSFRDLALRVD

SMILES	Ki [1]	Ki [2]	IC50 [3]
Cn1cc(NC(=O)c2cnc3cccnn23)c(-c2cc(Cl)ccc2OC(F)F)n1 [Example 8, N-[3-[5-chloro-2-(difluoromethoxy)phenyl]-1-methyl-1H-pyrazol-4-yl]imidazo[1,2-b]pyridazine-3-carboxamide]	280 pM	140 pM	6000 pM
N#CC1(CNC2CCN(C(=O)Cn3cc(NC(=O)c4cnc5cccnn45)c(-c4cc(Cl)ccc4OC(F)F)n3)CC2)CC1 [Example 5, N-[3-[5-chloro-2-(difluoromethoxy)phenyl]-1-[2-(4-[[(1-cyanocyclopropyl)-methyl]amino]piperidin-1-yl)-2-oxoethyl]-1H-pyrazol-4-yl]imidazo[1,2-b]pyridazine-3-carboxamide]	560 pM	2400 pM	110000 pM
CSc1ccc(OC(F)F)c(-c2n[nH]cc2NC(=O)c2cnc3cccnn23)c1 [Example 13, N-[3-[2-(difluoromethoxy)-5-(methylsulfanyl)phenyl]-1H-pyrazol-4-yl]imidazo[1,2-b]pyridazine-3-carboxamide]	110 pM	50 pM	2900 pM
CSc1ccc(OC(F)F)c(-c2nn(CC(=O)N3CCC(CN4CCN(CC(=O)N(C)C)CC4)CC3)cc2NC(=O)c2cnc3cccnn23)c1 [Example 11]	510 pM	690 pM	200000 pM
O=C(Nc1cn(CC(=O)N2CCN(CCN3CCOCC3)CC2)nc1-c1cc(Cl)ccc1OC(F)F)c1cnc2cccnn12 [Example 12, N-[3-[5-chloro-2-(difluoromethoxy)phenyl]-1-(2-[4-[2-(morpholin-4-yl)ethyl]piperazin-1-yl]-2-oxoethyl)-1H-pyrazol-4-yl]imidazo[1,2-b]pyridazine-3-carboxamide]	650 pM	2000 pM	150000 pM
C#Cc1ccc2ncc(C(=O)Nc3c[nH]nc3-c3cc(Cl)ccc3OC(F)F)n2n1 [Example 3, N-[3-[5-chloro-2-(difluoromethoxy)phenyl]-1H-pyrazol-4-yl]-6-ethynyl-imidazo[1,2-b]pyridazine-3-carboxamide]	290 pM	76 pM	21000 pM
CN(C1CCN(C(=O)Cn2cc(NC(=O)c3cnc4cccnn34)c(-c3cc(Cl)ccc3OC(F)F)n2)CC1)C1COC1 [Example 1, N-[3-[5-chloro-2-(difluoromethoxy)phenyl]-1-(2-[4-[methyl(oxetan-3-yl)amino]piperidin-1-yl]-2-oxoethyl)-1H-pyrazol-4-yl]imidazo[1,2-b]pyridazine-3-carboxamide]	330 pM	960 pM	74000 pM
O=C(Nc1c[nH]nc1-c1cc(SC2CC2)ccc1OC(F)F)c1cnc2cccnn12 [Example 9, N-[3-[5-(cyclopropylsulfanyl)-2-(difluoromethoxy)phenyl]-1H-pyrazol-4-yl]imidazo[1,2-b]pyridazine-3-carboxamide]	290 pM	120 pM	11000 pM
NCCn1cc(NC(=O)c2cnc3cccnn23)c(-c2cc(Cl)ccc2OC(F)F)n1 [Example 7, N-[1-(2-aminoethyl)-3-[5-chloro-2-(difluoromethoxy)phenyl]-1H-pyrazol-4-yl]imidazo[1,2-b]pyridazine-3-carboxamide]	720 pM	530 pM	34000 pM
O=C(Nc1c[nH]nc1-c1cc(Cl)ccc1OC(F)F)c1cnc2ccc(Cl)nn12 [Example 2, 6-chloro-N-[3-[5-chloro-2-(difluoromethoxy)phenyl]-1H-pyrazol-4-yl]imidazo[1,2-b]pyridazine-3-carboxamide]	1500 pM	200 pM	16000 pM
CC(C)Sc1ccc(OC(F)F)c(-c2n[nH]cc2NC(=O)c2cnc3cccnn23)c1 [Example 10, N-[3-[2-(difluoromethoxy)-5-(propan-2-ylsulfanyl)phenyl]-1H-pyrazol-4-yl]imidazo[1,2-b]pyridazine-3-carboxamide]	410 pM	260 pM	7500 pM
O=C(Nc1c[nH]nc1-c1cc(Cl)ccc1OC(F)F)c1cnc2cccnn12 [Example 6, N-[3-[5-chloro-2-(difluoromelhoxy)phenyl]-1H-pyrazol-4-yl]imidazo[1,2-b]pyridazine-3-carboxamide]	180 pM	63 pM	4500 pM
O=C(Nc1cn(CC(=O)N2CCC(N3CCOCC3)CC2)nc1-c1cc(Cl)ccc1OC(F)F)c1cnc2cccnn12 [Example 4, N-[3-[5-chloro-2-(difluoromethoxy)phenyl]-1-[2-[4-(morpholin-4-yl)piperidin-1-yl]-2-oxoethyl]-1H-pyrazol-4-yl]imidazo[1,2-b]pyridazine-3-carboxamide]	360 pM	1200 pM	20000 pM
